Publication PMC2733134, “A novel hydroxyfuroic acid compound as an insulin receptor activator - structure and activity relationship of a prenylindole moiety to insulin receptor activation” (Journal of Biomedical Science, 2009)
Several values for one entry are separate records, joined by “and”; a condition that tells them apart may be missing. Identical values can stand only once. Like-named read-outs stand apart in the source and are kept apart here.

Columns and labels:
[1] = molecular target: T1, human insulin receptor (Homo sapiens, UniProt P06213); assay: Insulin receptor activation assay (CHO cells overexpressing human insulin receptor, Ab-3 capture, tyrosine kinase activity); assay type: cell-based; details: for Study 2, cpm, phosphoryl incorporation by tyrosine kinase activities / Study 1, cpm, phosphoryl incorporation by tyrosine kinase activities: hydroxyfuroic acid compounds 100 μM, insulin 10 nM; for % activation, tyrosine kinase activity compared to 10 nM insulin stimulation (Study 2) / % activation, tyrosine kinase activity compared to 10 nM insulin stimulation (Study 1): test concentration 100 μM
T1 construct: expressed in transfected cells; host or cells: CHO cells (gift of Dr. Richard Roth, Stanford University)
Procedure: The insulin receptor activation assay is based on the assay described by Zhang et al. with minor modifications. Briefly, approximately 100,000 CHO cells overexpressing human recombinant insulin receptor were suspended in 100 μl of Ham's F-12 medium containing 10% fetal bovine serum (FBS) and seeded into each well of a 96-well plate. Cells were incubated at 37°C with 5% CO2 aeration overnight. CHO cells were rinsed with phosphate buffered saline (PBS) 3 times and starved in serum free Ham's F-12 medium for 2 hours before being stimulated with desired concentration of insulin or test compound for 20 minutes. Test compounds were predissolved in DMSO as 100× stocks and serially diluted when necessary. Stimulated CHO cells were then rinsed 3 times with PBS and lysed in 60 μl of lysis buffer. Fifty μl of the lysate was transferred to a well on a Flexible Assay Plate that was precoated with Ab-3 antibody recognizing the β-subunit of insulin receptor. The well was then rinsed 3 times with Tris buffered saline (TBS) containing 0.1% Tween20 and thrown dried by hand before 10 μl of tyrosine kinase reaction mixture (50 mM HEPES, pH7.4, 5 mM MgCl2, 5 mM MnCl2, 1 mg/mL polyGlu/Tyr and 250,000 cpm γ-P^33 ATP/well) was added. The reaction was carried out at 25°C for 40 minutes and terminated by adding 50 μl ice cold 100 mM phosphoric acid. Fifty μl of the stopped reaction mixture was then transferred to an inch square P81 paper. The P81 paper was air dried and then rinsed in Millipore water 5 times to remove leftover radioactive ATP and product ADP. Five mL of scintillation cocktail was added to the paper before the count was read in a liquid scintillation counter.
(§1) The 50% effective or inhibition concentrations were determined with the standard curve analysis of SigmaPlot 8.02. The nonlinear regression equation is y = min+(max-min)/(1+(x/EC50)^Hill Slope) where y is the observed responses; x is the dose concentrations; max and min are approximated by the program automatically during the calculation.
To validate the insulin receptor activation assay, dose response curve of bovine insulin was determined. […] In subsequent experiments, we routinely included 1, 10, and 100 nM insulin as standard reference. […] For simplicity, the efficacies of hydroxyfuroic acid compounds were expressed as percentage of activities comparing to the response provided by 10 nM insulin stimulation in parallel. To distinguish human insulin receptor kinase from other tyrosine kinases in CHO cells, Ab-3, a human insulin receptor β-subunit specific monoclonal antibody, was used to absorb insulin receptor from the CHO cell lysate, so the radioactivity catalyzed by captured tyrosine kinase is attributable to insulin receptor tyrosine kinase activity.

[2] = molecular target: T2, Recombinant human IGF-1 receptor (Homo sapiens, UniProt P08069); assay: IGF-1 receptor tyrosine kinase activity assay; assay type: biochemical; details: mid μM of compound, Fig. 6A
T2 construct: purchased R&D systems (Minneapolis, MN)
T2 sequence (P08069 31-1367): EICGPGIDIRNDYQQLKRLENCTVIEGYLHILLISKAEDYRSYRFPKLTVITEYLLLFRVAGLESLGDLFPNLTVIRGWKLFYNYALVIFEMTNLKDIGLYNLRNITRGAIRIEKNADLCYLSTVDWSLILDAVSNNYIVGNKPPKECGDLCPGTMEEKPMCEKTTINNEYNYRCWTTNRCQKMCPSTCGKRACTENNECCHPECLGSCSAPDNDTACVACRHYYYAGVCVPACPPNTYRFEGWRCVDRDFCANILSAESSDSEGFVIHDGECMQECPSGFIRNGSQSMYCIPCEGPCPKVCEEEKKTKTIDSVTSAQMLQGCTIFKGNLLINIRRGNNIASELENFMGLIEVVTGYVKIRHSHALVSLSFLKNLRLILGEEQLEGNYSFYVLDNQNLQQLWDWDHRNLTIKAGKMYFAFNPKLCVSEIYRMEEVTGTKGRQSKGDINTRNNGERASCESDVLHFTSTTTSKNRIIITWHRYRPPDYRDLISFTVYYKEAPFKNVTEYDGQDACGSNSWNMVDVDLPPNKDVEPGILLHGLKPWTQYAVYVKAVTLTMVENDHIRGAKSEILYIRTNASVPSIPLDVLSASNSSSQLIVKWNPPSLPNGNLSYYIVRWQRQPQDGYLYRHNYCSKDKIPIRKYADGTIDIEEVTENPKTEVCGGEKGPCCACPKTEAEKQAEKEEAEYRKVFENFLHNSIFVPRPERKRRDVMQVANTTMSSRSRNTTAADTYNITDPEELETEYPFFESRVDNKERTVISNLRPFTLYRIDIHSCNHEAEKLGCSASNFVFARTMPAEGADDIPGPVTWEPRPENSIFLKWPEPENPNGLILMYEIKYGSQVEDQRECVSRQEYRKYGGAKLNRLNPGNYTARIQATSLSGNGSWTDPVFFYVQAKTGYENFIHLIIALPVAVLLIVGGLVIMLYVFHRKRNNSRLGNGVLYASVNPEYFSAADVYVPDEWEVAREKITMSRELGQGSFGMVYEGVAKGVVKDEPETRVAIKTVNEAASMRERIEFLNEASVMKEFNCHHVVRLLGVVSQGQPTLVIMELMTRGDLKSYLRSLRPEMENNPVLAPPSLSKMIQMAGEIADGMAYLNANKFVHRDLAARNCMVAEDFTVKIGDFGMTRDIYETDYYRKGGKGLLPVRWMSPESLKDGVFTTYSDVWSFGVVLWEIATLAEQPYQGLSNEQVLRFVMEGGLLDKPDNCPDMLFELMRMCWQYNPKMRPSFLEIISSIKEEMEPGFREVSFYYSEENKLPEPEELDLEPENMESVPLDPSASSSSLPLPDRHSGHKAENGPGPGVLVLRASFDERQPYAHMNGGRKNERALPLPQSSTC
Procedure: The reaction was carried out at pH7.0 in the presence of 50 mM HEPES, 5 mM MgCl2, 0.01 μg/μl polyGlu/Tyr substrate, 5 mM DTT, 250,000 cpm radioactive ATP, and 0.4 ng/μl IGF-1R tyrosine kinase with a final volume of 100 μl at 37°C for 10 minutes. The IGF-1 receptor tyrosine kinase reaction was carried out with subsaturating concentrations of substrates for better sensitivity to activator or inhibitor influence. Test compound D-410639 was predissolved in DMSO as 20× stock. The reaction was stopped by the addition of 100 μl of 25 mM EDTA (pH8), and 85 μl of the stopped reaction mix was blotted on an inch square P81 paper. P81 paper was air dried before rinsed 5 times in Millipore water to remove non-protein phosphorus. Five mL scintillation cocktail was added to the P81 paper before the counts were read with a liquid scintillation counter.
as §1

[3] = molecular target: T3, EGF receptor (ErbB1) (Homo sapiens, UniProt P00533); assay: EGF receptor (ErbB1) tyrosine kinase activity assay; assay type: biochemical; details: Fig. 6B
T3 construct: purchased R&D systems (Minneapolis, MN)
T3 sequence (P00533 25-1210): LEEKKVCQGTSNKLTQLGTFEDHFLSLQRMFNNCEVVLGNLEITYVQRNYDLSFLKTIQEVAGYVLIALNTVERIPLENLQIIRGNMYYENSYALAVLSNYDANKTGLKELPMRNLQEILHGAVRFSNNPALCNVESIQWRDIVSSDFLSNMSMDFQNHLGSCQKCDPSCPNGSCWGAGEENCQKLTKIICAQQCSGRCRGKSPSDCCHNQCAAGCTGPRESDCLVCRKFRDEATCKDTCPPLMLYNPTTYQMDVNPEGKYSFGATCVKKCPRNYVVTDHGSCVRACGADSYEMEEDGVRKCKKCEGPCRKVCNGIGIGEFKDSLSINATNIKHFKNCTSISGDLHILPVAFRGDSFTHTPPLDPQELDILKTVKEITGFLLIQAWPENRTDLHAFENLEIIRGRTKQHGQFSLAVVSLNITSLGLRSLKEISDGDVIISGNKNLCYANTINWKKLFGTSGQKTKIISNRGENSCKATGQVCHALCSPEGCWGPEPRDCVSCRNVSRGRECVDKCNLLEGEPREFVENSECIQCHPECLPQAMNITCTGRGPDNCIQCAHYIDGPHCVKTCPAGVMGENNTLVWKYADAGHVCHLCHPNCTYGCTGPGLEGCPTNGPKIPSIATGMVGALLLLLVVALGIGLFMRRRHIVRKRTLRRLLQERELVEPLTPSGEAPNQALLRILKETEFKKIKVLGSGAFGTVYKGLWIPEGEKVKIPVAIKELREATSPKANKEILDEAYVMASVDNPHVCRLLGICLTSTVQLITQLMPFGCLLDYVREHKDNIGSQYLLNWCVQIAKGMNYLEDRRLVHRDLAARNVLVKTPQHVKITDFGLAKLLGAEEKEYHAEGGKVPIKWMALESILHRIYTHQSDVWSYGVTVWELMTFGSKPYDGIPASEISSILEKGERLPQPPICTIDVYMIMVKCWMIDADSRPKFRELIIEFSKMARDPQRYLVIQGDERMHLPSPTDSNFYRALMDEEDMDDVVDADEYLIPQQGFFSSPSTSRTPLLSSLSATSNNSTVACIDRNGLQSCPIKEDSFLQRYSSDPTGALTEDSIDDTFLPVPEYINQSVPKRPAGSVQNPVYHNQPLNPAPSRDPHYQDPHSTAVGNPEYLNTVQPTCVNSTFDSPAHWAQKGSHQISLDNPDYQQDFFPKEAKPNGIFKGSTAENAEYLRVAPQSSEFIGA
Procedure: The reaction condition of EGF receptor (ErbB1) was similar to that of IGF-1 receptor reaction except 0.04 μg/μl polyGlu/Tyr substrate and 0.3 ng/μl EGF receptor (ErbB1) were used, and the reaction time was 15 minutes. All other conditions or processes were the same. The EGF receptor tyrosine kinase reaction was carried out with subsaturating concentrations of substrates for better sensitivity to activator or inhibitor influence.
as §1

[4] = molecular target: T4, FGF receptor 3 (Homo sapiens, UniProt P22607); assay: FGF receptor 3 tyrosine kinase activity assay; assay type: biochemical; details: Fig. 6C
T4 construct: purchased R&D systems (Minneapolis, MN)
T4 sequence (P22607 23-806): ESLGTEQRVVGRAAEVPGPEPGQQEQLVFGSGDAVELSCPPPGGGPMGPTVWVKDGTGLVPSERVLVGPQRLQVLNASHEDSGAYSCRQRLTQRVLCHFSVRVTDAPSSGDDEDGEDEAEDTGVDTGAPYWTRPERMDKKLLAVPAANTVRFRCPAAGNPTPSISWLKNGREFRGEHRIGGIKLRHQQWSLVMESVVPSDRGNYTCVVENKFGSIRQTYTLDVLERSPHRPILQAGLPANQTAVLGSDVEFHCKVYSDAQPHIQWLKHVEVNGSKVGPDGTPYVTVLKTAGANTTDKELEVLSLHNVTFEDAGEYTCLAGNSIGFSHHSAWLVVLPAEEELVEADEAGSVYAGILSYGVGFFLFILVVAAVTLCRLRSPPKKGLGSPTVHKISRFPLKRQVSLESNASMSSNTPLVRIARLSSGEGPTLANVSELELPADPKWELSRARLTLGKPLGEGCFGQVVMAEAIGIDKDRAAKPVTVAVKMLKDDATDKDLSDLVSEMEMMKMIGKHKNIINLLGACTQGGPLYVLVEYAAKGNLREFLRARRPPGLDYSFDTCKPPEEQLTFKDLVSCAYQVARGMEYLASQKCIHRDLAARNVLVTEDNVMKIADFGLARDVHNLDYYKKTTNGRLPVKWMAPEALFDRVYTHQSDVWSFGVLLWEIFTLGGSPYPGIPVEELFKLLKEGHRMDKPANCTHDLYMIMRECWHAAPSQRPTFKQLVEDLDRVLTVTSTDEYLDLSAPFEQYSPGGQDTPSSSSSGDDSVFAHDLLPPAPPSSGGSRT
Procedure: The reaction condition of FGF receptor 3 was similar to that of EGF receptor except 0.1 μg/μl polyGlu/Tyr substrate and 0.05 ng/μl FGF-receptor 3 were used instead. All other conditions or processes were the same. The FGF receptor 3 tyrosine kinase reaction was carried out with subsaturating concentrations of substrates for better sensitivity to activator or inhibitor influence.
as §1

[5] = in vitro; assay type: cell-based; details: Chinese hamster, LC50, cytotoxicity
Procedure: (§2) Approximately 5,000 CHO cells suspended in 100 μl D-MEM containing 10% FBS were seeded in each well of a 96-well plate overnight before the cytotoxicity assay. Test compounds were predissolved as 10× solution in 10% DMSO, 10% ethanol, 80% PBS and 10 μl of this 10× test compound solution were added to each well. After 24 hours incubation, medium containing test compound was removed by aspiration and 3 rinses of PBS. One hundred μl of serum medium was replenished before 20 μl methylthiazolyldiphenyl-tetrazolium bromide (MTT, 2.5 mg/mL) and 1 μl phenazine methosulfate (PMS, 50 μM) was added to each well before a 3-hour further incubation at 37°C. Optical density at 450 nm was measured with an ELISA reader. LC50 is defined as the concentration of compound that causes 50% drop of cell viability in this test.

[6] = test system: CHO cells; assay: in vitro; assay type: cell-based; details: Chinese hamster, 24 h
Procedure: as §2

[7] = molecular target: insulin receptor; details: cited from earlier work
[8] = test system: db/db mice; design: method as in PMID 10320380, PMID 11237209; details: cited from earlier work
[9] = test system: EGF receptor (ErbB1); design: method as in Zhang et al. [19]; details: ref Zhang et al. [19]; cited from earlier work
[10] = side by side comparison, Fig. 3, read-out: EC50, insulin receptor tyrosine kinase activation
[11] = read-out: EC50, insulin receptor activation, reported previously

With `O=C(O)c1oc(C(=O)c2c[nH]c3c(CCCC(CO)CO)cccc23)c(O)c1-c1c[nH]c2ccccc12` [Compound D-410642] the “Study 2, cpm, phosphoryl incorporation by tyrosine kinase activities” value (from here on “Study 2, cpm, phosphoryl incorporation”) [1] was 659.3 cpm and the “% activation, tyrosine kinase activity compared to 10 nM insulin stimulation (Study 2)” value (from here on “% activation … (Study 2)”) [1] was 40.4%.

With `O=C(O)c1oc(C(=O)c2c[nH]c3c(CCCCCO)cccc23)c(O)c1-c1c[nH]c2ccccc12` [Compound D-410639] the “insulin receptor activation efficacy relative to 10 nM insulin (range over Study 1 and 2)” value ([1]; 100 μM, both studies) was 72-89%, the “Study 1, cpm, phosphoryl incorporation by tyrosine kinase activities” value [1] was 5590 cpm and the “% activation, tyrosine kinase activity compared to 10 nM insulin stimulation (Study 1)” value (shortened to “% activation … (Study 1)”) [1] was 89.4%. For the same compound, the “Study 2, cpm, phosphoryl incorporation” value [1] was 1181 cpm, the “% activation … (Study 2)” value [1] was 72.3% and the EC50 [1, 10] was 33 µM and 32.9 µM. The “increase of IGF-1 receptor activity from the base line” value [2] was 60-70%, the IC50 [3] was 1.8 µM and the IC50 [4] was 26.5 µM. The CC50 at 24 h [5] was ~296 µM, the CC50 [6] was 296 µM and the “fold less cytotoxic than DMAQ B1” value [6] was 128 fold.

In the case of `C=CC(C)(C)c1[nH]c2ccccc2c1C1=C(O)C(=O)C(c2c[nH]c3c(CC=C(C)C)cccc23)=C(O)C1=O` [DMAQ B1, Demethylasterriquinone B1], the CC50 at 24 h [5] is listed as 2.3 µM, the EC50 [7, 11] is listed as 5 µM and the “effect on blood glucose” value [8] is listed as “lower blood glucose in db/db mice”. For the same compound, the “activation potential on EGF receptor (ErbB1)” value [9] was “minor activation potential”.

For `O=C(O)CCCCc1cccc2c(C(=O)c3oc(C(=O)O)c(-c4c[nH]c5ccccc45)c3O)c[nH]c12` [Compound D-410643], the “Study 2, cpm, phosphoryl incorporation” value [1] was 799 cpm and the “% activation … (Study 2)” value [1] was 48.9%.

In the case of `O=C(O)c1oc(C(=O)c2c[nH]c3c(CCCO)cccc23)c(O)c1-c1c[nH]c2ccccc12` [Compound D-410637], the “% activation … (Study 1)” value [1] is reported as 18.9%.

For `CCCCCc1cccc2c(C(=O)c3oc(C(=O)O)c(-c4c[nH]c5ccccc45)c3O)c[nH]c12` [Compound D-410641], the “Study 2, cpm, phosphoryl incorporation” value [1] was 792.7 cpm and the “% activation … (Study 2)” value [1] was 48.6%.

In the case of “bovine insulin: bovine insulin, standard reference of the insulin receptor activation assay”, the “Study 1, cpm, phosphoryl incorporation by tyrosine kinase activities” value [1] is reported as 6250 cpm, the “Study 2, cpm, phosphoryl incorporation” value [1] is reported as 1632.5 cpm and the EC50 ([1]; assay validation dose response curve, read-out: EC50 of bovine insulin, insulin receptor activation) is reported as ~0.0051 µM. The EC50 ([7]; ref Liu et al. [21], read-out: EC50 of insulin, reported) was 0.001 µM.

In the case of `O=C(O)c1sc(C(=O)c2c[nH]c3c(CCCCCO)cccc23)c(O)c1-c1c[nH]c2ccccc12` [Compound D-410640], the “dose response of insulin receptor activation efficacy” value ([1]; normalized against 10 nM insulin, Fig. 4) is reported as “levels off at 50 μM and tapers off by 100 μM”.

In the case of `Cn1cc(C2=C(O)C(=O)C(c3ccccc3)=C(O)C2=O)c2ccccc21` [compound 2, phenylindolyldihydroxyquinone, reference compound], the EC50 [1, 10] is listed as 39 µM and 38.9 µM, the CC50 at 24 h [5] is listed as 66.5 µM and the EC50 [7, 11] is listed as 0.3 µM.

With `O=C(O)CCc1cccc2c(C(=O)c3oc(C(=O)O)c(-c4c[nH]c5ccccc45)c3O)c[nH]c12` [Compound D-410644] the “Study 2, cpm, phosphoryl incorporation” value [1] was 357.3 cpm and the “% activation … (Study 2)” value [1] was 21.9%.

For `O=C(O)c1oc(C(=O)c2c[nH]c3c(CCCCO)cccc23)c(O)c1-c1c[nH]c2ccccc12` [Compound D-410638], the “% activation … (Study 1)” value [1] was 31.3%.

In the case of “diisoprenylindolylasterriquinone [Compound L-767827]”, the “insulin receptor tyrosine kinase activation potential” value [7] is listed as “no insulin receptor tyrosine kinase activation potential”.
